From US20240228463A1, “SODIUM CHANNEL INHIBITORS AND METHODS OF DESIGNING SAME” (Genentech, Inc., priority 2021, published 2024)
Structures can show the parent of a compound that is named as a salt.

molecular target: T1, hNaV1.7 (Homo sapiens, UniProt Q15858); assay: Patch voltage clamp electrophysiology (EP), Syncropatch 384PE, Nav1.7 in CHO cells; format: cell-based; details: hNaV1.7 EP_SP, holding potential −50 mV, inhibition based on 7.5 min compound incubation;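 note: Nav1.7 stably expressed from cDNA in CHO cells, holding potential of −50 mV kept for the entire experiment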
T1 construct: expressed in transfected cells
T1 sequence (Q15858 1-1977 isoform Q15858-3): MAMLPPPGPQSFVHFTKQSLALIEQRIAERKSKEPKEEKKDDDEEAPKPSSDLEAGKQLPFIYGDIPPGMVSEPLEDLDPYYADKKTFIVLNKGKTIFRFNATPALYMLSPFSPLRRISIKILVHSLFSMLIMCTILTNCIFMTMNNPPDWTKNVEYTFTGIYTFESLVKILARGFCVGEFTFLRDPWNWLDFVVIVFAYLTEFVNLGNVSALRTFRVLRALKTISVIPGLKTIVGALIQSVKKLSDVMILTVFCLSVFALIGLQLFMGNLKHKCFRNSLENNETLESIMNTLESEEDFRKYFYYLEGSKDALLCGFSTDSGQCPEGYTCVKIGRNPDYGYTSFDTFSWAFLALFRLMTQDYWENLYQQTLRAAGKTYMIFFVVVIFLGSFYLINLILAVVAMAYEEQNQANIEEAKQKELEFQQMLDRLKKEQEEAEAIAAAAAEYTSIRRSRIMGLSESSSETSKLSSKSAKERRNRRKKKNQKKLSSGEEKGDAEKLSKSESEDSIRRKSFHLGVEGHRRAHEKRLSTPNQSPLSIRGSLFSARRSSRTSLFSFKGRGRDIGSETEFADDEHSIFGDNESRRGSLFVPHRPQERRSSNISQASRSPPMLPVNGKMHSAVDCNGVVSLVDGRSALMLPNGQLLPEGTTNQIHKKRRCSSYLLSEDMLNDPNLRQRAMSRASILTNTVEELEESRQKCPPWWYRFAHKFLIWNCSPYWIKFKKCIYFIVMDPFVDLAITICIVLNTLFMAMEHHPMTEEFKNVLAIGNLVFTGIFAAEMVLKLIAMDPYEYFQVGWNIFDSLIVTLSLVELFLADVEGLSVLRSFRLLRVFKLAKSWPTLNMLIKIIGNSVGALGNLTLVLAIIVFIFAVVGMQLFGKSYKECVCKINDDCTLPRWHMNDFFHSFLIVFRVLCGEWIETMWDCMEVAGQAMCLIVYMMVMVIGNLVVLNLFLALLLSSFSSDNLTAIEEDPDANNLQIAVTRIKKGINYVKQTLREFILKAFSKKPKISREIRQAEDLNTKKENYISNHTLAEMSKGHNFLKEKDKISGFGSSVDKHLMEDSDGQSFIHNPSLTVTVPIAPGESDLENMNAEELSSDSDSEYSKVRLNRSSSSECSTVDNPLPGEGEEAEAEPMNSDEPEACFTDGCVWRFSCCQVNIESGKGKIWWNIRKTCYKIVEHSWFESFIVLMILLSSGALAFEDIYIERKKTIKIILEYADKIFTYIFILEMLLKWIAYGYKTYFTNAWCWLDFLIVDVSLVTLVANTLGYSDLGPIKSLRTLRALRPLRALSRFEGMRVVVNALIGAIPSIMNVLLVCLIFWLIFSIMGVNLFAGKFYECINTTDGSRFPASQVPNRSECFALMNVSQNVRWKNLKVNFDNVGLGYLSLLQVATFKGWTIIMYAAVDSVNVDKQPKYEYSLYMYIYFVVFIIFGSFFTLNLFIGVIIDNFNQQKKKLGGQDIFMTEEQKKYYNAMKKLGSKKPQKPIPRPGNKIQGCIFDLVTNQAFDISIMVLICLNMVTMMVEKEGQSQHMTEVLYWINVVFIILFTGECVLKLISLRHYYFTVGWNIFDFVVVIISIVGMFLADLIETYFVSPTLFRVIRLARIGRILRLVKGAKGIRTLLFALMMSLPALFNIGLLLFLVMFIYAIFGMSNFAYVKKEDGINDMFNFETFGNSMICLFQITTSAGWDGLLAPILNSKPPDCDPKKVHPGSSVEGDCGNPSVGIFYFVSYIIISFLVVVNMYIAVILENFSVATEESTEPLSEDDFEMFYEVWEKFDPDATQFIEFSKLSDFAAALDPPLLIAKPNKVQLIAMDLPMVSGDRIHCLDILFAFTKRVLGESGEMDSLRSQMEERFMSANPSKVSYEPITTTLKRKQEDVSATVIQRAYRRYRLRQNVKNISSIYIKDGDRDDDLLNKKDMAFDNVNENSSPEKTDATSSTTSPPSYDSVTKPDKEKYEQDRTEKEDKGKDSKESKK

| SMILES | IC50 |
| --- | --- |
| COc1cc(-c2cccc(C(F)(F)F)c2)c(F)cc1N1C(=O)CO[C@H]2CN(S(=O)(=O)Nc3noc4ccc(C5CC5)cc34)CC[C@@H]21 (single isomer, unassigned) [Example 94] | 240 nM |

same assay, conditions: holding potential −50 mV, inhibition based on 7.5 min compound incubation, read-out: hNaV1.7 EP_SP

| SMILES | IC50 |
| --- | --- |
| O=C(NS(=O)(=O)c1ccc(OCC2CNC2)cc1)c1cc(Cl)c(OCC2CCCC2)cc1F [Example 296, N-((4-(azetidin-3-ylmethoxy)phenyl)sulfonyl)-5-chloro-4-(cyclopentylmethoxy)-2-fluorobenzamide] | 280 nM |
| Cc1cccc(COc2ccc(S(=O)(=O)NC(=O)c3cc(Cl)c(OCC4CCCC4)cc3F)cc2)c1 [Example 260, 5-chloro-4-(cyclopentylmethoxy)-2-fluoro-N-((4-((3-methylbenzyl)oxy)phenyl)sulfonyl)benzamide] | 200 nM |
| O=C(NS(=O)(=O)N1CC(O[C@@H]2CCCNC2)C1)c1cc(Cl)c(OCC2CCCC2)cc1F (single isomer, unassigned) [Example 49] | 860 nM |
| O=C(NS(=O)(=O)c1ccc2c(c1)NCCC2)c1cc(Cl)c(OCC2CCCC2)cc1F [Example 267, 5-chloro-4-(cyclopentylmethoxy)-2-fluoro-N-((1,2,3,4-tetrahydroquinolin-7-yl)sulfonyl)benzamide] | 800 nM |
| O=C(NS(=O)(=O)N1CC(O[C@@H]2CCNC2)C1)c1cc(Cl)c(OCC2CCCC2)cc1F (single isomer, unassigned) [Example 31, 2,2,2-trifluoroacetate] | 390 nM |
| O=C(NS(=O)(=O)N1CC(O[C@@H]2CCCNC2)C1)c1cc(Cl)c(OCC2CCCC2)cc1F (single isomer, unassigned) [Example 48] | 860 nM |
| O=C(NS(=O)(=O)N1CCC2CCNCC2C1)c1cc(Cl)c(OCC2CCCC2)cc1F (stereo not shown) [Example 321, 5-chloro-4-(cyclopentylmethoxy)-2-fluoro-N-((octahydro-2,7-naphthyridin-2(1H)-yl)sulfonyl)benzamide] | 210 nM |
| O=C(NS(=O)(=O)c1ccc(OCc2cc(F)cc(F)c2)cc1)c1cc(Cl)c(OCC2CCCC2)cc1F [Example 307, 5-chloro-4-(cyclopentylmethoxy)-N-((4-((3,5-difluorobenzyl)oxy)phenyl)sulfonyl)-2-fluorobenzamide] | 730 nM |
| O=C(NS(=O)(=O)c1ccc(O[C@@H]2CCNC2)cc1)c1cc(Cl)c(OCC2CCCC2)cc1F (single isomer, unassigned) [Example 69] | 130 nM |
| CC(C)(C)OC(=O)C1CC2C(C1)C2NS(=O)(=O)NC(=O)c1cc(Cl)c(OCC2CCCC2)cc1F (stereo not shown) [Example 327, tert-butyl 6-((N-(5-chloro-4-(cyclopentylmethoxy)-2-fluorobenzoyl)-sulfamoyl)amino)bicyclo[3.1.0]hexane-3-carboxylate] | 920 nM |
| O=S(=O)(Nc1noc2cc(OCC3CCCC3)c(C3CC3)cc12)N1CCC(O[C@H]2CCNC2)CC1 (single isomer, unassigned) [Example 92, 2,2,2-trifluoroacetate] | 69 nM |
| COc1ccc(COc2ccc(S(=O)(=O)NC(=O)c3cc(Cl)c(OCC4CCCC4)cc3F)cc2)cc1 [Example 309, 5-chloro-4-(cyclopentylmethoxy)-2-fluoro-N-((4-((4-methoxybenzyl)oxy)phenyl)sulfonyl)benzamide] | 120 nM |
| O=C(NS(=O)(=O)c1ccc(NC2CCCCC2)cc1F)c1cc(Cl)c(OCC2CCCC2)cc1F [Example 208, 5-chloro-N-((4-(cyclohexylamino)-2-fluorophenyl)sulfonyl)-4-(cyclopentylmethoxy)-2-fluorobenzamide] | 880 nM |
| NC1CN(S(=O)(=O)NC(=O)c2cc(Cl)c(OCC3CCCC3)cc2F)C1 [Example 233, N-((3-aminoazetidin-1-yl)sulfonyl)-5-chloro-4-(cyclopentylmethoxy)-2-fluorobenzamide] | 870 nM |
| CN(C)[C@H]1CCCC[C@@H]1Oc1ccc(S(=O)(=O)Nc2noc3cc(OCC4CCCC4)c(C4CC4)cc23)c(F)c1 [Example 89, N-(6-(cyclopentylmethoxy)-5-cyclopropylbenzo[d]isoxazol-3-yl)-4-(((1S,2S)-2-(dimethylamino)cyclohexyl)oxy)-2-fluorobenzenesulfonamide] | 340 nM |
| CN(C)[C@H]1CCCC[C@@H]1Nc1cc(F)c(S(=O)(=O)NC(=O)c2cc(C3CC3)c(OCC3CCCC3)cc2F)c(F)c1 [Example 204, 4-(cyclopentylmethoxy)-5-cyclopropyl-N-((4-(((1S,2S)-2-(dimethylamino)cyclohexyl)amino)-2,6-difluorophenyl)sulfonyl)-2-fluorobenzamide] | 10 nM |
| O=C(NS(=O)(=O)c1ccc2c(c1)OCCO2)c1cc(Cl)c(OCC2CCCC2)cc1F [Example 281, 5-chloro-4-(cyclopentylmethoxy)-N-((2,3-dihydrobenzo[b][1,4]dioxin-6-yl)sulfonyl)-2-fluorobenzamide] | 320 nM |
| O=C(NS(=O)(=O)N1CCC(O[C@H]2CCNC2)CC1)c1cc(Cl)c(OCC2CCCC2)cc1F (single isomer, unassigned) [Example 37, 2,2,2-trifluoroacetate] | 77 nM |

| SMILES | IC50 |
| --- | --- |
| CN(C)C1CCCN(c2ccc(S(=O)(=O)NC(=O)c3cc(Cl)c(OCC4CCCC4)cc3F)cc2)C1 (single isomer, unassigned) [Example 209] | 110 nM |
| O=C(NS(=O)(=O)c1ccc(F)c2ncccc12)c1cc(Cl)c(OCC2CCCC2)cc1F [Example 279, 5-chloro-4-(cyclopentylmethoxy)-2-fluoro-N-((8-fluoroquinolin-5-yl)sulfonyl)benzamide] | 500 nM |
| O=C(NS(=O)(=O)Cc1ccc2ncccc2c1)c1cc(Cl)c(OCC2CCCC2)cc1F [Example 273, 5-chloro-4-(cyclopentylmethoxy)-2-fluoro-N-((quinolin-6-ylmethyl)sulfonyl)benzamide] | 230 nM |
| Cc1ccc(COc2ccc(S(=O)(=O)NC(=O)c3cc(Cl)c(OCC4CCCC4)cc3F)cc2)cc1 [Example 313, 5-chloro-4-(cyclopentylmethoxy)-2-fluoro-N-((4-((4-methylbenzyl)oxy)phenyl)sulfonyl)benzamide] | 140 nM |
| CN(C)[C@H]1CCCC[C@@H]1Nc1ccc(S(=O)(=O)Nc2nc3ccc(OCC4CCCC4)c(Cl)c3s2)c(F)c1 [Example 333, N-(7-chloro-6-(cyclopentylmethoxy)benzo[d]thiazol-2-yl)-4-(((1S,2S)-2-(dimethylamino)cyclohexyl)amino)-2-fluorobenzenesulfonamide] | 65 nM |
| O=C(NS(=O)(=O)c1cc(Cl)ccc1F)c1cc(Cl)c(OCC2CCCC2)cc1F [Example 80, 5-chloro-N-((5-chloro-2-fluorophenyl)sulfonyl)-4-(cyclopentylmethoxy)-2-fluorobenzamide] | 700 nM |
| CN(C)C1CCCN(c2cc(F)c(S(=O)(=O)NC(=O)c3cc(Cl)c(OCC4CCCC4)cc3F)c(F)c2)C1 (stereo not shown) [Example 62, 5-chloro-4-(cyclopentylmethoxy)-N-((4-(3-(dimethylamino)piperidin-1-yl)-2,6-difluorophenyl)sulfonyl)-2-fluorobenzamide formate] | 17 nM |
| CN(C)[C@H]1C[C@@H](c2cccc(C(F)(F)F)c2)CC[C@@H]1Oc1ccc(S(=O)(=O)NC(=O)c2cc(C3CC3)ccc2F)c(F)c1 [Example 75, 5-cyclopropyl-N-((4-(((1S,2S,4S)-2-(dimethylamino)-4-(3-(trifluoromethyl)-phenyl)cyclohexyl)oxy)-2-fluorophenyl)sulfonyl)-2-fluorobenzamide] | 120 nM |
| O=C(NS(=O)(=O)C1CC1)c1cc(Cl)c(OCC2CCCC2)cc1F [Example 328, 5-chloro-4-(cyclopentylmethoxy)-N-(cyclopropylsulfonyl)-2-fluorobenzamide] | 10 nM |
| C[C@H]1CCCN1S(=O)(=O)NC(=O)c1cc(Cl)c(OCC2CCCC2)cc1F (single isomer, unassigned) [Example 223] | 39 nM |
| CN(C)[C@H]1CCCC[C@@H]1Nc1ccc(S(=O)(=O)NC(=O)c2ccc(OCC3CCCC3)c(Cl)c2)c(F)c1 [Example 57, 3-chloro-4-(cyclopentylmethoxy)-N-((4-(((1S,2S)-2-(dimethylamino)-cyclohexyl)amino)-2-fluorophenyl)sulfonyl)benzamide formate] | 540 nM |
| CN1CC(OC2CCN(S(=O)(=O)NC(=O)c3cc(C4CCC4)c(OCC4CCCC4)cc3F)CC2)C1 [Example 7, 5-cyclobutyl-4-(cyclopentylmethoxy)-2-fluoro-N-((4-((1-methylazetidin-3-yl)oxy)piperidin-1-yl)sulfonyl)benzamide 2,2,2-trifluoroacetate] | 8 nM |
| CN(C)C1(C)CCCN(c2cc(F)c(S(=O)(=O)NC(=O)c3cc(Cl)c(OCC4CCCC4)cc3F)c(F)c2)C1 (stereo not shown) [Example 76, 5-chloro-4-(cyclopentylmethoxy)-N-((4-(3-(dimethylamino)-3-methylpiperidin-1-yl)-2,6-difluorophenyl)sulfonyl)-2-fluorobenzamide] | 32 nM |
| O=C(NS(=O)(=O)c1ccc(OCc2ncccn2)cc1)c1cc(Cl)c(OCC2CCCC2)cc1F [Example 295, 5-chloro-4-(cyclopentylmethoxy)-2-fluoro-N-((4-(pyrimidin-2-ylmethoxy)phenyl)sulfonyl)benzamide] | 230 nM |
| Cc1cc(C)cc(COc2ccc(S(=O)(=O)NC(=O)c3cc(Cl)c(OCC4CCCC4)cc3F)cc2)c1 [Example 303, 5-chloro-4-(cyclopentylmethoxy)-N-((4-((3,5-dimethyl-benzyl)oxy)phenyl)sulfonyl)-2-fluorobenzamide] | 260 nM |
| O=C(NS(=O)(=O)c1ccc(NCc2ccccc2)cc1)c1cc(Cl)c(OCC2CCCC2)cc1F [Example 84, N-((4-(benzylamino)phenyl)sulfonyl)-5-chloro-4-(cyclopentylmethoxy)-2-fluorobenzamide] | 690 nM |
| O=C(NS(=O)(=O)C1CCNCC1)c1cc(Cl)c(OCC2CCCC2)cc1F [Example 324, 5-chloro-4-(cyclopentylmethoxy)-2-fluoro-N-(piperidin-4-ylsulfonyl)-benzamide] | 790 nM |
| O=C(NS(=O)(=O)N1CCC(O[C@@H]2CCNC2)CC1)c1cc(Cl)c(OCC2CCCC2)cc1F (single isomer, unassigned) [Example 36, 2,2,2-trifluoroacetate] | 200 nM |
